According to US10494376B2, “Tetrahydroisoquinoline derived PRMT5-inhibitors” (CTXT PTY LTD, priority 2014, dated 2019):
Counter-ions that a name gives are not always drawn. Like-named read-outs stand apart in the source and are kept apart here.

Columns and labels:
[1] = target: T1, Full-length PRMT5 enzyme (NCBI Reference sequence NP_006100.2) co-expressed with His6-MEP50 (Homo sapiens (Human), UniProt O14744); assay: PRMT5 Biochemical Assay; conditions: 200 nM peptide substrate, 1 μM S-Adenosyl methionine, 4 hours at 37° C., Transcreener EPIGEN fluorescence polarisation
T1 sequence (O14744 whole entry): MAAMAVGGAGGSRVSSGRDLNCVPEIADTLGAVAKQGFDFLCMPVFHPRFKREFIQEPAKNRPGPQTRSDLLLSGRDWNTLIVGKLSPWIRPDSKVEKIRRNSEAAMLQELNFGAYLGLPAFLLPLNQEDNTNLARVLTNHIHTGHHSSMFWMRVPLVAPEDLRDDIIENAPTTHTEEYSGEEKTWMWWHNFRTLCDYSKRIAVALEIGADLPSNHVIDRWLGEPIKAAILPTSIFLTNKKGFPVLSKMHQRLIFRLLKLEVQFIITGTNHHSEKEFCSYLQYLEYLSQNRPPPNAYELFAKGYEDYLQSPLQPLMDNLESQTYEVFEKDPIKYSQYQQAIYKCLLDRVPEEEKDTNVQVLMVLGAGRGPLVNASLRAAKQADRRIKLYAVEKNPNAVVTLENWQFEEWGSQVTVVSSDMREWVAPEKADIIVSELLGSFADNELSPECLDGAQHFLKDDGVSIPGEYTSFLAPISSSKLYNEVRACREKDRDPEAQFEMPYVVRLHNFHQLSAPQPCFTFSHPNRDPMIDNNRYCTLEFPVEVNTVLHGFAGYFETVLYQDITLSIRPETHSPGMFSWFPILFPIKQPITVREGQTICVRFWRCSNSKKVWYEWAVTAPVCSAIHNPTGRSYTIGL
T1 sequence (Q9BQA1 whole entry partner): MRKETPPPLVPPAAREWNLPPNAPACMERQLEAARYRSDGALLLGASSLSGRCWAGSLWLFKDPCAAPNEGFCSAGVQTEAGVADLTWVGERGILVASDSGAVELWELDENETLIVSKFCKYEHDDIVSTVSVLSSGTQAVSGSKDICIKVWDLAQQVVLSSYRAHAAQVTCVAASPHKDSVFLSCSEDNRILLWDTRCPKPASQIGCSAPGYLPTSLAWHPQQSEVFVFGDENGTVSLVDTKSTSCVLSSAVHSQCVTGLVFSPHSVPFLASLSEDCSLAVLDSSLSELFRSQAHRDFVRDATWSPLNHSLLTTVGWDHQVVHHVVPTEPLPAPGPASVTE
Procedure: Compounds of the invention may be tested for in vitro activity in the following assay: A histone H4 derived peptide is used as substrate (amino acid sequence: […]N H2). Full-length PRMT5 enzyme (NCBI Reference sequence NP_006100.2) was co-expressed with His6-MEP50 in insect cells and purified via Nickel immobilized metal affinity and gel filtration chromatography (“the enzyme”).
The 6 μL assay reactions are run in Greiner brand black 384-well low volume plates. All reactions contained assay buffer (phosphate buffered saline, 0.01% (v/v) Tween-20, 0.01% (w/v) albumin from chicken egg white, 1 mM dithiothreitol, 200 nM peptide substrate, 1 μM S-Adenosyl methionine, and 15 ng/reaction enzyme, with the enzyme being omitted from negative control reactions. Compounds were added in a volume of 100 nL from dilution series prepared in DMSO, positive and negative control reactions receiving the same volume DMSO without compound. The plates were sealed with adhesive seals and incubated for 4 hours at 37° C. Reaction progress was measured using the Transcreener™ EPIGEN methyltransferase assay (BellBrook Labs, Madison, Wis.) as recommended by the manufacturer. To each reaction 2 μL detection mix were added, containing coupling enzymes, fluorescence polarisation tracer, and AMP antibody. Plates were incubated for 90 min before being read on a PerkinElmer EnVision™ plate reader in fluorescence polarisation mode. IC50 values were obtained from the raw readings by calculating percent inhibition (%1) for each reaction relative to controls on the same plate (% I=(I−CN)/(CP−CN) where CN/CP are the averages of the negative/positive reactions, respectively), then fitting the % I data vs. compound concentration [I] to % I=(A+((B−A)/(1+((C/[I])^D)))) where A is the lower asymptote, B is the upper asymptote, C is the IC50 value, and D is the slope.

[2] = tested on: symmetrical dimethylation of arginine (Di-Methyl Histone H4R3) in cell line TE11; assay: PRMT5 Biomarker Assay (symmetrical dimethylation of arginine, Di-Methyl Histone H4R3 ELISA); format: cell-based; conditions: Homo sapiens, TE-11; TE11 cells, 72 h incubation, EpiQuik ELISA, corrected for total protein
Procedure: (§1) Compounds of the invention may be tested for potency to inhibit symmetrical dimethylation of arginine in the following assay:
The cell line TE11 was seeded at a density of 12,000 cells per well in 96 well tissue culture plates in DME medium and 10% foetal bovine serum, and allowed to adhere overnight under standard culture conditions (37° C., 5% CO2). Compound dilutions prepared in DMSO were added to the medium, with negative control wells reserved for treatment with DMSO only and positive controls receiving a potent PRMT5 inhibitor. The concentration of the inhibitor had been previously determined to give maximum inhibition of the methylation. After incubation for 72 h, cells were washed twice in ice-cold PBS, lysed in lysis buffer (20 mM Tris pH 7.4, 135 mM NaCl, 1.5 mM MgCl2, 1 mM EGTA, 10% glycerol and 1% Triton-X100), centrifuged at 15,000×g and the supernatants collected for subsequent analysis. The methylation level was determined using the EpiQuik™ Global Di-Methyl Histone H4R^3 Quantification ELISA Kit (Epigentek, Farmingdale, N.Y.) as per the manufacturer's recommendations; in parallel the total protein amount in the lysate was quantified using a Lowry protein assay. […]

[3] = target: T1, Full-length PRMT5 enzyme (NCBI Reference sequence NP_006100.2) co-expressed with His6-MEP50; assay: Revised PRMT5 Biochemical Assay; conditions: 1 μM peptide substrate, 1 μM S-Adenosyl methionine, 4 hours at 37 degree Celsius, Transcreener EPIGEN fluorescence polarisation
Outline: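 Full-length PRMT5 co-expressed with His6-MEP50 in insect cells (15 ng/reaction) was run with 1 μM H4-derived peptide and 1 μM SAM in PBS, 0.01% Tween-20, 0.01% albumin and 1 mM DTT for 4 h at 37 °C. Product was read by Transcreener EPIGEN fluorescence polarisation, and IC50 came from a 4-parameter fit.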

[4] = tested on: symmetrical dimethylation of arginine (Di-Methyl Histone H4 Arginine 3) in cell line TE11; assay: Revised PRMT5 Biomarker Assay (Di-Methyl Histone H4 Arginine 3 immunofluorescence); format: cell-based; conditions: Homo sapiens, TE-11, TE11 cells, 72 hours
Procedure: as §1
The cell line TE11 was seeded at a density of 6,000 cells per well in 96 well optical quality tissue culture plates in DME medium and 10% foetal bovine serum, and allowed to adhere for 5 hours under standard culture conditions (37 degree Celsius, 5% CO2). […] After incubation for 72 hours, the cells were fixed with 3.7% formaldehyde in PBS for 30 minutes at room temperature, washed with phosphate buffer saline and blocked with Odyssey blocking buffer (LI-COR, Lincoln, Nebr.). Rabbit anti-Di-Methyl Histone H4 Arginine 3 specific antibody (Epigentek) in Odyssey blocking buffer was added and incubated for 14 hours at 4 degree Celsius. […] Alternatively, the plates were imaged on a PerkinElmer Phenix high content imaging platform. […] The resulting mean intensity per cell was directly converted to percent inhibition as outlined above (IC50, imager based).

SMILES	IC50 [1] [nM]	IC50 [2] [nM]	IC50 [3] [nM]	IC50 ([4]; PerkinElmer Phenix high content imaging, mean intensity per cell, read-out: IC50 - image based) [nM]	IC50 ([4]; PerkinElmer Envision fluorescence intensity, corrected for Hoechst 33342, read-out: IC50 - plate-reader based) [nM]
O=C(NCC(O)CC1Cc2ccccc2CN1)c1ccc(C(=O)N2CCOCC2)cc1 (stereo not shown) [Example 1, N-(2-Hydroxy-3-(1,2,3,4-tetrahydroisoquinolin-3-yl)propyl)-4-(morpholine-4-carbonyl)benzamide]	4690	956	–	–	–
O=C(NCC(O)C1Cc2ccccc2CN1)c1ccc(C(=O)N2CCOCC2)cc1 (stereo not shown) [Example 2, N-(2-hydroxy-2-(1,2,3,4-tetrahydroisoquinolin-3-yl)ethyl)-4-(morpholine-4-carbonyl)benzamide]	763	7.2	–	–	–
O=C(NC[C@H](O)[C@H]1Cc2ccccc2CN1)c1ccc(C(=O)N2CCOCC2)cc1 [Example 53, N—((S)-2-hydroxy-2-((R)-1,2,3,4-tetrahydroisoquinolin-3-yl)ethyl)-4-(morpholine-4-carbonyl)benzamide hydrochloride]	22000	–	21200	–	–
O=C(NC[C@@H](O)[C@@H]1Cc2ccccc2CN1)c1ccc(C(=O)N2C3CCC2COC3)cc1C(F)F [Example 106, 4-(3-Oxa-8-azabicyclo[3.2.1]octane-8-carbonyl)-2-(difluoromethyl)-N—((R)-2-hydroxy-2-((S)-1,2,3,4-tetrahydroisoquinolin-3-yl)ethyl)benzamide]	–	–	212	5	–
CCOc1cc(C(=O)N2C3CCC2COC3)ccc1C(=O)NC[C@@H](O)[C@@H]1Cc2ccc(C)cc2CN1 [Example 108, 4-(3-Oxa-8-azabicyclo[3.2.1]octane-8-carbonyl)-2-ethoxy-N—((R)-2-hydroxy-2-((S)-7-methyl-1,2,3,4-tetrahydroisoquinolin-3-yl)ethyl)benzamide]	–	–	17	–	1
